pIC50: −log10 of the molar value.
Target: T1, 3-phosphoinositide-dependent protein kinase 1 (Homo sapiens, UniProt O15530)
T1 sequence (O15530 whole entry): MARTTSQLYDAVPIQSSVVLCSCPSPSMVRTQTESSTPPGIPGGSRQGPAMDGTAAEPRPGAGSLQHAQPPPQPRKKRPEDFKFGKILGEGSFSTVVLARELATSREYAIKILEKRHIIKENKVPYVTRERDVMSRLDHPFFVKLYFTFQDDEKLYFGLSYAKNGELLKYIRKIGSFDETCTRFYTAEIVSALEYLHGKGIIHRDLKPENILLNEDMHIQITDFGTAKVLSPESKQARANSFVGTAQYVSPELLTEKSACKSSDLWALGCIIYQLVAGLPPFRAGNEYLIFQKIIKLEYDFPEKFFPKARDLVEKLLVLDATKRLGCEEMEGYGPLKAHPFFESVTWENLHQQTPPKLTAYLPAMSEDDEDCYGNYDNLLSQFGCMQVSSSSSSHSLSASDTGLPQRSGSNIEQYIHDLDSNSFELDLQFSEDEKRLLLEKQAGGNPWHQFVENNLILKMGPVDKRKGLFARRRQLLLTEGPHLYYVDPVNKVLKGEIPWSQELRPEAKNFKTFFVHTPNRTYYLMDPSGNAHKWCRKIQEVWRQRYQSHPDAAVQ
Experiment: Inhibition of PDPK1 by ELISA assay

Structure (SMILES)	pIC50
COc1cc2ncc3c(N)nc(-c4ccoc4)cc3c2cc1OC	< 6.00
COc1cc2ncc3c(N)nc(-c4cncc(Nc5ccccc5OCc5ccccc5)c4)cc3c2cc1OC	< 6.00
COc1cc2ncc3c(N)nc(-n4ccnc4)cc3c2cc1OC	7.00
COc1cc2ncc3c(N)nc(-c4ccc(N)nc4)cc3c2cc1OC	< 6.00
COc1cc2ncc3c(N)nc(-c4ccccn4)cc3c2cc1OC	< 7.00

Further lines, results first:

pIC50	Structure (SMILES)
7.19	COc1cc2ncc3c(N)nc(-c4cncc(Br)c4)cc3c2cc1OC
7.52	COc1cc2ncc3c(N)nc(-c4cncc(Nc5ccccc5F)c4)cc3c2cc1OC
7.46	COc1cc2ncc3c(N)nc(-c4cccnc4)cc3c2cc1OC
7.59	COc1cc2ncc3c(N)nc(-c4cncc(N)c4)cc3c2cc1OC
6.84	COc1cc2c(cc1OCCCN1CCCCC1)ncc1c(N)nc(-c3cccnc3)cc12
6.84	COc1cc2c(cc1OCc1ccccc1)ncc1c(N)nc(-c3cccnc3)cc12

Source: ChEMBL document CHEMBL1155295, “Benzo[c][2,7]naphthyridines as inhibitors of PDK-1” (Bioorg Med Chem Lett, 2009)
